Data reported in ChEMBL document CHEMBL2375249, “Synthesis and biological evaluation of novel pyrrolidine-2,5-dione derivatives as potential antidepressant agents. Part 1” (Eur J Med Chem, 2013).
Calls of active or inactive are those of the source. The calls are words filed in the database; no cut-off is given here.

Assays:
Mus musculus [1] = test: Antidepressant activity in CD1 mouse assessed as reduction in immobility time at 1 to 2 mg/kg, sc measured during final 4 mins in 6 mins test session after 2 mins habituation period by forced swimming test; assay type: functional, organism-based
[2] = target: Sodium-dependent serotonin transporter (Rattus norvegicus, UniProt P31652); test: Displacement of [3H]-citalopram from SERT in rat cerebral cortex after 1 hr by liquid scintillation counting analysis; assay type: tissue-based
Chain of Sodium-dependent serotonin transporter (P31652 whole entry): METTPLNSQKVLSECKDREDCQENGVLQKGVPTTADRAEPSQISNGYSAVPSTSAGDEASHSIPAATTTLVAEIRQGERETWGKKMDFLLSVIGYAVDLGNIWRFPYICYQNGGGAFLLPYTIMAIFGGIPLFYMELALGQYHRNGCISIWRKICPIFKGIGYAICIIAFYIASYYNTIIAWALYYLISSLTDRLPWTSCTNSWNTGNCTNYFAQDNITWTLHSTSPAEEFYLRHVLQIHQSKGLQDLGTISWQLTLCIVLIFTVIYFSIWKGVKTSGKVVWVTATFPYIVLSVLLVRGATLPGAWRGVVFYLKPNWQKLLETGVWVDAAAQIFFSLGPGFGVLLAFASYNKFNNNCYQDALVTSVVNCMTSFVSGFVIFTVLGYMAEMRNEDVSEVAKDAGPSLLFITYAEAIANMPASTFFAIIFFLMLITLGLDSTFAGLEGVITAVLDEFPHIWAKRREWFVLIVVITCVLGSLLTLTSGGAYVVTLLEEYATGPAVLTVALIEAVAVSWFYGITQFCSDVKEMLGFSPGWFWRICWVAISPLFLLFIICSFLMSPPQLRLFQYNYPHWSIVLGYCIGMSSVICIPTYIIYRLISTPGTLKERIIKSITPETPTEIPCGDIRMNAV

[3] = target: T1, 5-hydroxytryptamine receptor 1A (Rattus norvegicus, UniProt P19327); test: Displacement of [3H]-8-OH-DPAT from 5HT1A receptor in rat hippocampal membranes after 20 mins; assay type: cell membranes, Hippocampus, Membrane
T1 sequence (P19327 whole entry): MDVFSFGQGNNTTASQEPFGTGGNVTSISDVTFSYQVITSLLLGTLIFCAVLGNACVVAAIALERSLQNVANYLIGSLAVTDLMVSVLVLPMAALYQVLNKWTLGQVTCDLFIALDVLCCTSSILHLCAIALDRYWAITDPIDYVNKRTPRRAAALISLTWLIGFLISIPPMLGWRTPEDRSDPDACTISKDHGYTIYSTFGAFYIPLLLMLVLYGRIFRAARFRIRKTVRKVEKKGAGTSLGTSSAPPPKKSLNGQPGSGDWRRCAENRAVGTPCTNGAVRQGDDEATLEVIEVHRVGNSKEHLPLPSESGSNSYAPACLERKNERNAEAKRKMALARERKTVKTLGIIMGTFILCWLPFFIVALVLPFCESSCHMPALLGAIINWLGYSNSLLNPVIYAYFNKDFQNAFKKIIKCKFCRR

D(2) dopamine receptor = D(2) dopamine receptor (Homo sapiens, UniProt P14416); test: Displacement of [3H]-raclopride from human dopamine D2L receptor expressed in HEK293 cells after 1 hr; assay type: cell-based
Chain of D(2) dopamine receptor (P14416 whole entry): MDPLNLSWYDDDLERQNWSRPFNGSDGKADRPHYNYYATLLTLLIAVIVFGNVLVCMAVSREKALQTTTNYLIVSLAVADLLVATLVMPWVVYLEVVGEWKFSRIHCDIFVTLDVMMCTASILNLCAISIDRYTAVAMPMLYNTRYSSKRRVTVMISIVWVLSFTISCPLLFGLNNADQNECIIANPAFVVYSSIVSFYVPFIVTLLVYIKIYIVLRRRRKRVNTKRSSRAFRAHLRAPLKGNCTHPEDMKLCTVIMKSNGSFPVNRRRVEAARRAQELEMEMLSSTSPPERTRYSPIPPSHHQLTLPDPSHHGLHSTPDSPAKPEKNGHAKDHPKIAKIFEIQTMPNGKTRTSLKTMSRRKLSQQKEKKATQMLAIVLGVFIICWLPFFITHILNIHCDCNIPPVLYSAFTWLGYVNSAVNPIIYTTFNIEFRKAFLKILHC

[4] = target: 5-hydroxytryptamine receptor 7 (Homo sapiens, UniProt P34969); test: Displacement of [3H]-5CT from human 5HT7 receptor expressed in HEK293 cells after 1 hr; assay type: cell-based
Chain of 5-hydroxytryptamine receptor 7 (P34969 whole entry): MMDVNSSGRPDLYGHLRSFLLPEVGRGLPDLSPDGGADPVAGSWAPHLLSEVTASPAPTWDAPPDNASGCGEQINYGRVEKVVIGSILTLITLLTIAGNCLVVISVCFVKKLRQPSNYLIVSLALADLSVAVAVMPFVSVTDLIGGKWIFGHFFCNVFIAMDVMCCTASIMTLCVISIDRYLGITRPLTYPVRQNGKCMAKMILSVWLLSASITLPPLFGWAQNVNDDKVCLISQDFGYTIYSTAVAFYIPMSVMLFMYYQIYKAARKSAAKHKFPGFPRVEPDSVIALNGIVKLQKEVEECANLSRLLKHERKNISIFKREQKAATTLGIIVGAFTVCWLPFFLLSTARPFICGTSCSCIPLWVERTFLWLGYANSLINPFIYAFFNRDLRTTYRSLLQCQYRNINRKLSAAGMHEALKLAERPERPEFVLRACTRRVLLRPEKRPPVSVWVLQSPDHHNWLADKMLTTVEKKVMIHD

[5] = target: 5-hydroxytryptamine receptor 6 (Homo sapiens, UniProt P50406); test: Displacement of [3H]-LSD from human 5HT6 receptor expressed in HEK293 cells after 1 hr; assay type: cell-based
Chain of 5-hydroxytryptamine receptor 6 (P50406 whole entry): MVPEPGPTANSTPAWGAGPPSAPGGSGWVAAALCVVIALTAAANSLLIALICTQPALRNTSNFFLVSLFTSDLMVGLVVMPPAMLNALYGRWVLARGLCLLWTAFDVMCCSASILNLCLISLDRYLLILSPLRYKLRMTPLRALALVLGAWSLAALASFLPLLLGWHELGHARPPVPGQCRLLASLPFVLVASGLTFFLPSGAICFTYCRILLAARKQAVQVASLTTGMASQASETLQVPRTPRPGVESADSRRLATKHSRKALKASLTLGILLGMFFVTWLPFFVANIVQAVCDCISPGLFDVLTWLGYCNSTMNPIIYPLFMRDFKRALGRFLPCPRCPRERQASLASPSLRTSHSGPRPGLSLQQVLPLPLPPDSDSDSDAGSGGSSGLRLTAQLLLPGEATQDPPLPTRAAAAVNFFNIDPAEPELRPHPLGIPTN

[6] = target: 5-hydroxytryptamine receptor 2A (Rattus norvegicus, UniProt P14842); test: Displacement of [3H]-ketanserin from 5HT2A in rat cerebral cortex 20 mins by liquid scintillation counting analysis; assay type: tissue-based
Chain of 5-hydroxytryptamine receptor 2A (P14842 whole entry): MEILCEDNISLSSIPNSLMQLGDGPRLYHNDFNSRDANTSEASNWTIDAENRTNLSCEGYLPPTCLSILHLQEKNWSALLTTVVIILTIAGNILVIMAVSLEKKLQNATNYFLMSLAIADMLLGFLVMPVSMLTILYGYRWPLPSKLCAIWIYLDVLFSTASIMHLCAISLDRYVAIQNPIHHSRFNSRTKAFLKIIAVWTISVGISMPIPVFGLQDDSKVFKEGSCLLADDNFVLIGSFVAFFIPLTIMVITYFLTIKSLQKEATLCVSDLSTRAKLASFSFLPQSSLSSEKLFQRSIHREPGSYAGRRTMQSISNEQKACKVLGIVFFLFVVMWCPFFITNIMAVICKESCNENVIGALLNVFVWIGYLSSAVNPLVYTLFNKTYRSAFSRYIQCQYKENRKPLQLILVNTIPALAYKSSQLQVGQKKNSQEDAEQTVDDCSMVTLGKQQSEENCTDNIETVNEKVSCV

Mus musculus [7] = test: Induction of hypothermia in CD1 mouse assessed as change in rectal body temperature at 2.5 mg/kg, ip administered 30 mins prior to test measured after 90 mins relative to control; assay type: functional, organism-based; design: dose 2.5 mg/kg
Mus musculus [8] = test: Induction of hypothermia in CD1 mouse assessed as change in rectal body temperature at 2.5 mg/kg, ip administered 30 mins prior to test measured after 30 mins relative to control; assay type: functional, organism-based; design: dose 2.5 mg/kg
Mus musculus [9] = test: Induction of hypothermia in CD1 mouse assessed as change in rectal body temperature at 2.5 mg/kg, ip administered 30 mins prior to test measured after 120 mins relative to control; assay type: functional, organism-based; design: dose 2.5 mg/kg
Mus musculus [10] = test: Induction of hypothermia in CD1 mouse assessed as change in rectal body temperature at 5 mg/kg, ip administered 30 mins prior to test measured after 90 mins relative to control; assay type: functional, organism-based; design: dose 5 mg/kg
Mus musculus [11] = test: Induction of hypothermia in CD1 mouse assessed as change in rectal body temperature at 5 mg/kg, ip administered 30 mins prior to test measured after 60 mins in presence of WAY 100635 relative to control; assay type: functional, organism-based; design: dose 5 mg/kg
Mus musculus [12] = test: Induction of hypothermia in CD1 mouse assessed as change in rectal body temperature at 5 mg/kg, ip administered 30 mins prior to test measured after 120 mins relative to control; assay type: functional, organism-based; design: dose 5 mg/kg
Mus musculus [13] = test: Induction of hypothermia in CD1 mouse assessed as change in rectal body temperature at 5 mg/kg, ip administered 30 mins prior to test measured after 30 mins relative to control; assay type: functional, organism-based; design: dose 5 mg/kg
Mus musculus [14] = test: Induction of hypothermia in CD1 mouse assessed as change in rectal body temperature at 5 mg/kg, ip administered 30 mins prior to test measured after 60 mins relative to control; assay type: functional, organism-based; design: dose 5 mg/kg
Mus musculus [15] = test: Induction of hypothermia in CD1 mouse assessed as change in rectal body temperature at 2.5 mg/kg, ip administered 30 mins prior to test measured after 60 mins relative to control; assay type: functional, organism-based; design: dose 2.5 mg/kg
Mus musculus [16] = test: Induction of hypothermia in CD1 mouse assessed as change in rectal body temperature at 5 mg/kg, ip administered 30 mins prior to test measured after 30 mins in presence of WAY 100635 relative to control; assay type: functional, organism-based; design: dose 5 mg/kg
Mus musculus [17] = test: Antidepressant activity in CD1 mouse assessed as reduction in immobility time at 2.5 to 5 mg/kg, ip measured during final 4 mins in 6 mins test session after 2 mins habituation period by forced swimming test; assay type: functional, organism-based

## CCCN(CCC)C1CCc2cccc(O)c2C1 (stereo not drawn)
Mus musculus [1]
  Activity: Active

## O=C1CC(c2c[nH]c3ccccc23)C(=O)N1CCCN1CCC(c2c[nH]c3ccc(F)cc23)CC1 (racemic)
[2]
  Ki: 215 nM
[3]
  Ki: 122 nM

## COc1ccc2[nH]cc(C3CCN(CCCN4C(=O)CC(c5c[nH]c6ccccc56)C4=O)CC3)c2c1 (racemic)
D(2) dopamine receptor
  Ki: 343 nM
[2]
  Ki: 221 nM
[3]
  Ki: 32.6 nM
[4]
  Ki: 589 nM
[5]
  Ki: 264 nM
[6]
  Ki: 11600 nM

## O=C1CC(c2c[nH]c3ccccc23)C(=O)N1CCN1CCC(c2c[nH]c3ccccc23)CC1 (racemic)
[2]
  Ki: 56 nM
[3]
  Ki: 364 nM

## O=C1CC(c2c[nH]c3ccccc23)C(=O)N1CCN1CCC(c2c[nH]c3ccc(F)cc23)CC1 (racemic)
D(2) dopamine receptor
  Ki: 80 nM
[2]
  Ki: 381 nM
[3]
  Ki: 8.1 nM
[4]
  Ki: 1160 nM
[5]
  Ki: 1150 nM
[6]
  Ki: 384 nM

## COc1ccc2[nH]cc(C3CCN(CCN4C(=O)CC(c5c[nH]c6ccccc56)C4=O)CC3)c2c1 (racemic)
[2]
  Ki: 1850 nM
[3]
  Ki: 352 nM

## O=C1CC(c2c[nH]c3ccccc23)C(=O)N1CCCCN1CC=C(c2c[nH]c3ccccc23)CC1 (racemic)
Mus musculus [7]
  deltaT: -0.9 °C
Mus musculus [8]
  deltaT: -0.7 °C
Mus musculus [9]
  deltaT: -0.9 °C
Mus musculus [10]
  deltaT: -1.5 °C
Mus musculus [11]
  deltaT: -1.2 °C
[2]
  Ki: 11.3 nM
Mus musculus [12]
  deltaT: -1.4 °C
Mus musculus [13]
  deltaT: -1.5 °C
Mus musculus [14]
  deltaT: -1.4 °C
Mus musculus [15]
  deltaT: -0.6 °C
[3]
  Ki: 12.5 nM
Mus musculus [16]
  deltaT: -1.2 °C

## O=C1CC(c2c[nH]c3ccccc23)C(=O)N1CCCCN1CC=C(c2c[nH]c3ccc(Cl)cc23)CC1 (racemic)
[2]
  Ki: 74.4 nM
[3]
  Ki: 68.7 nM

## O=C1CC(c2c[nH]c3ccccc23)C(=O)N1CCCCN1CC=C(c2c[nH]c3ccc(Br)cc23)CC1 (racemic)
[2]
  Ki: 208 nM
[3]
  Ki: 59.1 nM

## O=C1CC(c2c[nH]c3ccccc23)C(=O)N1CCCCN1CC=C(c2c[nH]c3ccc(F)cc23)CC1 (racemic)
Mus musculus [7]
  deltaT: -0.7 °C
Mus musculus [17]
  Activity: inactive
Mus musculus [8]
  deltaT: -0.6 °C
Mus musculus [9]
  deltaT: -0.7 °C
Mus musculus [10]
  deltaT: -1.3 °C
Mus musculus [11]
  deltaT: -0.2 °C
[2]
  Ki: 20 nM
Mus musculus [12]
  deltaT: -1.2 °C
Mus musculus [13]
  deltaT: -1.6 °C
Mus musculus [14]
  deltaT: -1.5 °C
Mus musculus [15]
  deltaT: -0.7 °C
[3]
  Ki: 17.6 nM
Mus musculus [16]
  deltaT: -0.5 °C

## COc1ccc2[nH]cc(C3=CCN(CCCCN4C(=O)CC(c5c[nH]c6ccccc56)C4=O)CC3)c2c1 (racemic)
Mus musculus [7]
  deltaT: -0.7 °C
Mus musculus [17]
  Activity: inactive
Mus musculus [8]
  deltaT: -0.5 °C
Mus musculus [9]
  deltaT: -0.4 °C
Mus musculus [10]
  deltaT: -1.1 °C
Mus musculus [11]
  deltaT: -0.3 °C
[2]
  Ki: 46.2 nM
Mus musculus [12]
  deltaT: -0.9 °C
Mus musculus [13]
  deltaT: -1.1 °C
Mus musculus [14]
  deltaT: -1.1 °C
Mus musculus [15]
  deltaT: -0.5 °C
[3]
  Ki: 3.2 nM
Mus musculus [16]
  deltaT: -0.4 °C

## O=C1CC(c2c[nH]c3ccccc23)C(=O)N1CCCN1CC=C(c2c[nH]c3ccccc23)CC1 (racemic)
[2]
  Ki: 4 nM
[3]
  Ki: 161 nM
